Assay: Human HepG2 cell viability assay in 384 well format
Type: toxicity, cell-based
Set-up: dose 125 nL, time 70.5 hour; concentration not given beside the values
Conditions: HepG2 cells, read-out: Inhibition

CCc1nc(CN2CCC(C(=O)N(C)C)CC2)cs1
cytotoxicity at 70.5 h: 0.679%

CC(NCc1ccc(C(C)(C)C)cc1)c1ccc(S(C)(=O)=O)cc1 (centres undefined)
cytotoxicity at 70.5 h: -8.09%

CC(NCc1ccc(F)cc1)c1ccc(S(C)(=O)=O)cc1 (centres undefined)
cytotoxicity at 70.5 h: -7.76%

CCC(NCc1ccccc1)c1ccccc1OCC(=O)NC (centres undefined)
cytotoxicity at 70.5 h: -6.53%

CCC(NCc1cccc(Cl)c1)c1ccccc1OCC(=O)NC (centres undefined)
cytotoxicity at 70.5 h: -1.52%

CN(Cc1ccc(Cl)s1)C(=O)Nc1ccc(N(C)C)nc1
cytotoxicity at 70.5 h: -11.5%

Cc1cccc(CN2CCN(C(=O)c3cccnc3O)CC2)c1
cytotoxicity at 70.5 h: -4.88%

Cc1ccc(CCNC(=O)NCCCC(N)=O)c(C)c1
cytotoxicity at 70.5 h: 1.66%

Cc1cccc(CN2CCN(C(=O)c3ccc(C)[nH]c3=O)CC2)c1
cytotoxicity at 70.5 h: -7.34%

CCN(CC)C(=O)c1ccc(CNc2ncc(C#N)cc2Cl)cc1
cytotoxicity at 70.5 h: -7.7%

N#Cc1ccc(CNc2ncc(C#N)cc2Cl)cc1
cytotoxicity at 70.5 h: 0.2%

O=C1C(Sc2nc(=O)ccn2C2CC2)CCN1c1ccccc1F (centres undefined)
cytotoxicity at 70.5 h: 2.14%

c1n[nH]cc1CCCN1CCC(OC2CCCCC2)CC1
cytotoxicity at 70.5 h: 0.00847%

COCCCC(=O)N1CC(=O)Nc2cc(Br)ccc21
cytotoxicity at 70.5 h: -3.54%

Cc1nc(NC(=O)COCC(F)(F)F)ccc1Br
cytotoxicity at 70.5 h: 1.69%

CCC(CNS(C)(=O)=O)Oc1ccccc1C (centres undefined)
cytotoxicity at 70.5 h: -3.25%

Cn1cc(CNCCNC(=O)Cc2ccccc2)c(-c2cccnc2)n1
cytotoxicity at 70.5 h: -5.62%

Cn1cc(CNCCc2cccnc2)c(-c2cccnc2)n1
cytotoxicity at 70.5 h: 22.8%

CNC(=O)CCc1cccc(OC2CCCC2)c1
cytotoxicity at 70.5 h: -12.2%

CCN(C(=O)CN1CCC(c2ccccc2)C1)C1CC1 (centres undefined)
cytotoxicity at 70.5 h: 0.241%

O=C1CCCN1c1cccc(CNCc2cc(F)ccc2F)c1
cytotoxicity at 70.5 h: -6.99%

CCC(C)c1cc(C(=O)N(CC(=O)NC)c2cccc(F)c2)on1 (centres undefined)
cytotoxicity at 70.5 h: 20.8%

CSc1ncccc1C(=O)NCC(c1ccco1)N(C)C (centres undefined)
cytotoxicity at 70.5 h: 4.37%

Cc1cc(C(=O)CN2CCN(c3nccs3)CC2)c(C)n1C1CC1
cytotoxicity at 70.5 h: -10.5%

O=C(c1ccc(Sc2ccccn2)cc1)N1CCCSCC1
cytotoxicity at 70.5 h: -10.8%

COc1ccc(OC)c(-n2nnnc2SCC2CCCCO2)c1 (centres undefined)
cytotoxicity at 70.5 h: -6.66%

Cc1cc(C)n(C2CN(c3ncnc4c3CCC4)C2)n1
cytotoxicity at 70.5 h: -10.3%

Cc1noc(CNC(=O)C(C)(C)NC(=O)OC(C)(C)C)n1
cytotoxicity at 70.5 h: 18.7%

Cc1cc(NCc2cccc(C#N)c2)ccc1C(N)=O
cytotoxicity at 70.5 h: 2.79%

CCc1cccc(NC(=O)CNc2ccccc2OCCC(=O)OC)c1
cytotoxicity at 70.5 h: -0.0313%

CC(Cn1cncn1)NC(=O)NCc1csc(N(C)C)n1 (centres undefined)
cytotoxicity at 70.5 h: -8.98%

CNC(=O)CN(C(=O)c1cc(C(C)C)no1)c1cccc(F)c1
cytotoxicity at 70.5 h: 27.9%

CCC1CCCN(S(=O)(=O)c2cnc3onc(C)c3c2)C1 (centres undefined)
cytotoxicity at 70.5 h: -4.44%

CCN1CCCN(S(=O)(=O)c2cnc3onc(C)c3c2)CC1
cytotoxicity at 70.5 h: -7.12%

CC(C)(CCS(C)(=O)=O)CNC(=O)NC1CCCCC1(C)C (centres undefined)
cytotoxicity at 70.5 h: 28%

CC(C)(CCS(C)(=O)=O)CNC(=O)NC1CCCC1(C)C (centres undefined)
cytotoxicity at 70.5 h: -6.64%

CS(=O)(=O)CCCNCc1c(Cl)cccc1N1CCCC1
cytotoxicity at 70.5 h: -10.5%

Cc1cc(NCc2cccc(C#N)c2)ccc1Br
cytotoxicity at 70.5 h: -7.27%

Cc1cc(NCc2cccc(C#N)c2)ccc1C(=O)N(C)C
cytotoxicity at 70.5 h: -9.77%

CC(C)N(Cc1ccc(Cl)c(Cl)c1)C(=O)CCn1cncn1
cytotoxicity at 70.5 h: -2.22%

O=C(c1cnccn1)N(CCO)Cc1cc(Br)ccc1F
cytotoxicity at 70.5 h: -5.51%

CN1CCC(C)(CNC(=O)c2ccc(SCc3cccnc3)cc2)CC1
cytotoxicity at 70.5 h: -9.14%

CN1CCN(c2cccc(Cl)c2CNCCS(C)(=O)=O)CC1
cytotoxicity at 70.5 h: -8.06%

NC(=O)CCNCc1c(Cl)cccc1N1CCCC1
cytotoxicity at 70.5 h: -6.13%

Cc1ccc(CNC(=O)CCN2CCN(c3ccccn3)CC2)n1C
cytotoxicity at 70.5 h: 21.9%

COCCNC(C)c1ccc(-c2cccnc2)cc1 (centres undefined)
cytotoxicity at 70.5 h: 0.821%

CN(C(=O)NCCCNc1ccccn1)C1CCS(=O)(=O)C1 (centres undefined)
cytotoxicity at 70.5 h: -10.6%

O=C(NCC1CCS(=O)(=O)C1)Nc1ccccn1 (centres undefined)
cytotoxicity at 70.5 h: 3.81%

O=C(Nc1ccc2c(c1)OC1(CCCCC1)O2)c1ccc(=O)[nH]n1
cytotoxicity at 70.5 h: 0.889%

CC1CN(c2ccc(CNC(=O)NCCO)cn2)CCO1 (centres undefined)
cytotoxicity at 70.5 h: -8.22%

N#Cc1cc(F)c(NCCc2ccc(F)cc2)c(F)c1
cytotoxicity at 70.5 h: -2.9%

CN(C)c1ncc(CNC(=O)Nc2ccc(C(F)(F)F)cc2)n1C
cytotoxicity at 70.5 h: -2.76%

N#Cc1cc(F)c(NCCc2cccnc2)c(F)c1
cytotoxicity at 70.5 h: -4.91%

CC(C)(C)C(=O)c1ccsc1NC(=O)CCNC(=O)c1ccco1
cytotoxicity at 70.5 h: -5.13%

CN(C)C(C(=O)Nc1nccs1)c1c(F)cccc1Cl (centres undefined)
cytotoxicity at 70.5 h: -0.246%

CN(c1ccc(CNc2c(Cl)cccc2C#N)cc1)S(C)(=O)=O
cytotoxicity at 70.5 h: -1.4%

Cc1c(C(=O)NC2CC(C)(C)NC(C)(C)C2)cnn1-c1ccc(F)cc1
cytotoxicity at 70.5 h: -2.72%

CN(C1CCCC1)C(C)(C)C(=O)NCCS(C)(=O)=O
cytotoxicity at 70.5 h: 2.52%

Cc1cc(CNc2ccnn2CC(C)C)ccc1-n1cncn1
cytotoxicity at 70.5 h: 7.96%
